Values quoted from earlier work in paper PMC5629142 (Drugs in R&D, 2017).

Conditions: TBZ co-administered with CYP2D6 inhibitors

For COc1cc2c(cc1OC)[C@@H]1C[C@H](O)[C@@H](CC(C)C)CN1CC2 [α-HTBZ], the “increase in overall exposure” value is listed as 3 fold.
